# According to US8841333B2, “Methods for treating nephrolithiasis” (Takeda Pharmaceuticals U.S.A., Inc., priority 2005, dated 2014):
# Assay: Double-blind 4-week study plus open-label extension of febuxostat in hyperuricemic subjects with gout and a history of nephrolithiasis
# Type: in vivo, human
# Method: Eighteen (18) hyperuricemic subjects with gout and a history of nephrolithiasis in their medical history were examined. Specifically, these eighteen subjects were part of a double-blind (DB) four (4) week study in which they received 40, 80 or 120 mg once daily (hereinafter referred to as “QD”) of 2-[3-cyano-4-(2-methylpropoxy)phenyl]-4-methylthiazole-5-carboxylic acid (hereinafter called “febuxostat”) or a placebo, followed by an open-label (OL) extension study of febuxostat 80 mg QD titrated to 40 mg or 120 mg QD of febuxostat based on serum uric acid levels and adverse events. The subjects were predominantly male (specifically, sixteen (16)) Caucasian, with a mean age of 55 years. Eleven (11) of the subjects had gout for more than 10 years, five (5) subjects had gout for between 5 to 10 years and two (2) subjects had gout for between 1 to 5 years. Overall, subject experienced between 1 and 20 attacks over a 2 to 45 year period prior to baseline. Twelve (12) of the subjects were classified as renally impaired (their creatinine clearance was <80 ml/minute). Six (6) subjects were considered to be uric acid overproducers (urinary uric acid excretion was greater than 800 mg/day). Comorbid conditions in these subjects included the following: hyperlipidemia (78%), hypertension (72%), obesity (56%) and coronary artery disease (17%). The mean serum urate for these subjects at baseline was 10.0 mg/dL. All subjects completed this DB study. Fifteen (15) subjects rolled over to the OL study with thirteen (13) completing treatment for a duration of greater than thirty (30) months. The majority of subjects (11/13) received daily febuxostat in the amount of 80 mg QD with two (2) subjects having their dose titrated to febuxostat 120 mg QD as per study protocol because of a post-baseline serum urate of ≧6.0 mg/dL.
smiles,measurement,setting,value
"Cc1nc(-c2ccc(OCC(C)C)c(C#N)c2)sc1C(=O)O [febuxostat, 2-[3-cyano-4-(2-methylpropoxy)phenyl]-4-methylthiazole-5-carboxylic acid]",subjects reporting kidney stones,"DB and OL portions, greater than 30 months of febuxostat treatment, three stones in total, one occurred on placebo, all calcium oxalate",2 subjects out of the 18 subjects
same,adverse events,"DB and OL study, febuxostat 40-120 mg QD",self-limiting and transient
same,mean reduction in serum urate,"at last visit versus baseline, febuxostat 40, 80 or 120 mg QD",47%
same,mean serum urate at last visit,"hyperuricemic gout subjects with history of nephrolithiasis, febuxostat 40, 80 or 120 mg QD, baseline mean serum urate 10.0 mg/dL",5.2 mg/dL
